Assay results taken from patent US20050009924A1 (priority 2003, published 2005).

Experiments:
[1] = MTT relative viability, PhTERT-SEAP (H1299) cells; conditions: human
Description: The tetrazolium reagent (MTT; 3-(4,5-di-methylthiazol)-2,5-diphenyl tetrazolium bromide, USB) was designed to yield a colored formazan upon metabolic reduction by viable cells. Approximately […] cells were plated onto each well of a 96-well plate and incubated in 5% CO2 at 37° C. for 24 h. To assess the in vitro cytotoxicity, each compound was dissolved in DMSO and prepared immediately before the experiments and was diluted into the complete medium before addition to cell cultures. Test compounds were then added to the culture medium for designated various concentrations. After 48 h, an amount of 25 μL of MTT was added to each well, and the samples were incubated at 37° C. for 4 h. A 100 μL solution of lysis buffer containing 20% SDS and 50% N,N-dimethylformamide was added to each well and incubated at 37° C. for another 16 h. The absorbency at 550 nm was measured using an ELISA reader.
Non small lung cancer cells H1299 (telomerase positive) were grown in RPMI 1640 media supplemented with 10% fetal bovine serum, 100 units/mL penicillin and 100 mg/mL streptomycin in a humidified atmosphere with 5% CO2 at 37° C. The hTERT immortalized hTERT-BJ1 (BD Biosciences Clontech)^39 were grown in DMEM media supplemented with 10% fetal calf serum, 100 units/mL penicillin and 100 mg/mL streptomycin, 1 mM sodium pyruvate, and 4 mM I-arginine in a humidified atmosphere with 5% CO2 at 37° C. Culture media were changed every 3 days. […] The stable clones derived from H1299 or hTERT-BJ1 were cultured using conditions that are similar to their parental cells.

[2] = test system: transcriptional activity of hTERT; assay: SEAP reporter assay of hTERT expression, PhTERT-SEAP (hTERT-BJ1); assay type: cell-based, human
Description: (§1) Secreted alkaine phosphatase was used as the reporter system to monitor the transcriptional activity of hTERT. Here, about […] each were grown in 96-well plates and incubated at 37° C. for 24 h and changed with fresh media. Varying amounts of drugs were added and cells were incubated for another 24 h. Culture media were collected and heated at 65° C. for 10 min to inactivate heat-labile phosphatases. An equal amount of SEAP buffer (2 M diethanolamine, 1 mM MgCl2, and 20 mM […]) was added to the media and p-nitrophenyl phosphate was added to a final concentration of 12 mM. Absorptions at 405 nm were taken, and the rate of absorption increase is determined.
(§2) Culture media were changed every 3 days. […] The stable clones were selected using G418.

[3] = test system: hepatitis B virus transfected hepatoma cell lines, HepG 2.2.15 cells; assay: Cytotoxicity assay, 2.2.15 cells; assay type: cell-based, human; conditions: 48 h of drug exposure
[4] = MTT relative viability, PhTERT-SEAP (hTERT-BJ1) cells; conditions: human
[5] = test system: transcriptional activity of hTERT; assay: SEAP reporter assay of hTERT expression, PhTERT-SEAP (H1299); assay type: cell-based, human
Description: as §1, §2

human hepatoma G2 cells = assay: Cytotoxicity assay (XTT colorimetric), Hep G2; assay type: cell-based; conditions: 48 h of drug exposure
rat glioma C6 cells = assay: Cytotoxicity assay (XTT colorimetric), C6 cells; assay type: cell-based; conditions: 48 h of drug exposure
[6] = Homo sapiens, hTERT-BJ1, read-out: Relative SEAP activity (%)
[7] = Homo sapiens, NCI-H1299, hTERT-H1299, read-out: Relative SEAP activity (%)
[8] = hTERT-BJ1 cells stably transfected with PhTERT-SEAP reporter

CC(C)CNc1cccc2c1C(=O)c1cccc(NCC(C)C)c1C2=O
viability at 48 h, 2.8 µM [1]: 108 ± 4.8% | viability at 48 h, 28 µM [1]: 106 ± 3.7% | viability at 48 h, 285 µM [1]: 80 ± 4.8% | activity at 2.8 µM [2, 6]: 22 ± 18.3% | activity at 28 µM [2, 6]: 22 ± 21.4% | activity at 285 µM [2, 6]: 29 ± 3.9% | IC50 ([3]; Homo sapiens, HepG2.2.15): > 20 µM | viability at 48 h, 285 µM [4]: 72 ± 3.3% | viability at 48 h, 2.8 µM ([4]; hTERT-BJ1 cells): 110 ± 7.6% | viability at 48 h, 28 µM ([4]; hTERT-BJ1 cells): 103 ± 3% | activity at 2.8 µM [5, 7]: 94 ± 7% | activity at 28 µM [5, 7]: 91 ± 2.5% | activity at 285 µM [5, 7]: 75 ± 4.1% | IC50 (human hepatoma G2 cells; Homo sapiens, HepG2): 14.3 ± 1.54 µM | IC50 (rat glioma C6 cells; Rattus norvegicus, C6): 12.7 ± 0.37 µM

NCCCNc1cccc2c1C(=O)c1cccc(NCCCN)c1C2=O
viability at 48 h, 2.8 µM [1]: 85 ± 11.5% | viability at 48 h, 28 µM [1]: 32 ± 9.3% | viability at 48 h, 283 µM [1]: 16 ± 2.1% | activity at 2.8 µM [2, 6]: 103 ± 19.8% | activity at 28 µM [2, 6]: 47 ± 20.5% | activity at 283 µM ([2]; Homo sapiens, 283 μM, hTERT-BJ1, read-out: Relative SEAP activity (%)): 60 ± 15.1% | IC50 ([3]; Homo sapiens, HepG2.2.15): 7.48 µM | viability at 48 h, 2.8 µM ([4]; hTERT-BJ1 cells): 85 ± 6.9% | viability at 48 h, 28 µM ([4]; hTERT-BJ1 cells): 3 ± 6.9% | activity at 2.8 µM [5, 7]: 102 ± 4.9% | activity at 28 µM [5, 7]: 44 ± 7.5% | activity at 283 µM ([5]; Homo sapiens, NCI-H1299, 283 μM, hTERT-H1299, read-out: Relative SEAP activity (%)): 38 ± 6% | IC50 (human hepatoma G2 cells; Homo sapiens, HepG2): 11.67 ± 0.09 µM | IC50 (rat glioma C6 cells; Rattus norvegicus, C6): 12.18 ± 0.04 µM

COc1cccc2c1C(=O)c1c(O)c3c(c(O)c1C2=O)C[C@@](O)(C(=O)CO)C[C@@H]3O[C@H]1C[C@H](N)[C@H](O)[C@H](C)O1 [Adriamycin, reference compound]
IC50 ([3]; Homo sapiens, HepG2.2.15): 1.6 µM | IC50 (human hepatoma G2 cells; Homo sapiens, HepG2): 0.9 ± 0.01 µM | IC50 (rat glioma C6 cells; Rattus norvegicus, C6): 1 µM

N.N.[Cl][Pt][Cl] [Cisplatin, reference compound]
IC50 [3]: 2 ± 0.54 µM | IC50 (human hepatoma G2 cells): 1.48 ± 0.62 µM | IC50 (rat glioma C6 cells): > 1 µM

CN(C)CCNc1cccc2c1C(=O)c1cccc(NCCN(C)C)c1C2=O [IVd, 1,5-Bis(2-dimethylaminoethylamino)anthraquinone]
viability at 48 h, 2.6 µM [1]: 107 ± 9.1% | viability at 48 h, 26 µM [1]: 81 ± 8.3% | viability at 48 h, 262 µM [1]: 29 ± 2.6% | activity at 2.6 µM ([2]; Homo sapiens, 2.6 μM, hTERT-BJ1, read-out: Relative SEAP activity (%)): 11 ± 22.4% | activity at 26 µM ([2]; Homo sapiens, 26 μM, hTERT-BJ1, read-out: Relative SEAP activity (%)): -15% | activity at 262 µM ([2]; Homo sapiens, 262 μM, hTERT-BJ1, read-out: Relative SEAP activity (%)): -26% | IC50 ([3]; Homo sapiens, HepG2.2.15): 0.13 µM | viability at 48 h, 2.6 µM ([4]; hTERT-BJ1 cells): 92 ± 4.8% | viability at 48 h, 26 µM ([4]; hTERT-BJ1 cells): 76 ± 5.9% | viability at 48 h, 262 µM ([4]; hTERT-BJ1 cells): 7 ± 18.2% | activity at 2.6 µM ([5]; Homo sapiens, NCI-H1299, 2.6 μM, hTERT-H1299, read-out: Relative SEAP activity (%)): 103 ± 6% | activity at 26 µM ([5]; Homo sapiens, NCI-H1299, 26 μM, hTERT-H1299, read-out: Relative SEAP activity (%)): 54 ± 5.9% | activity at 262 µM ([5]; Homo sapiens, NCI-H1299, 262 μM, hTERT-H1299, read-out: Relative SEAP activity (%)): 40 ± 5.9% | IC50 (human hepatoma G2 cells; Homo sapiens, HepG2): 0.09 ± 0.01 µM | IC50 (rat glioma C6 cells; Rattus norvegicus, C6): 0.12 µM

CCCCNc1cccc2c1C(=O)c1cccc(NCCCC)c1C2=O [IVj, 1,5-Bis(butylamino)anthraquinone]
viability at 48 h, 2.8 µM [1]: 102 ± 7% | viability at 48 h, 28 µM [1]: 104 ± 9.2% | viability at 48 h, 285 µM [1]: 81 ± 13.9% | activity at 2.8 µM [2, 6]: 98 ± 27.4% | activity at 28 µM [2, 6]: 103 ± 27% | activity at 285 µM [2, 6]: 123 ± 22.9% | IC50 ([3]; Homo sapiens, HepG2.2.15): > 20 µM | viability at 48 h, 285 µM [4]: 75 ± 5.9% | viability at 48 h, 2.8 µM ([4]; hTERT-BJ1 cells): 109 ± 9.1% | viability at 48 h, 28 µM ([4]; hTERT-BJ1 cells): 99 ± 5.9% | activity at 2.8 µM [5, 7]: 106 ± 7.1% | activity at 28 µM [5, 7]: 105 ± 5.5% | activity at 285 µM [5, 7]: 98 ± 5.2% | IC50 (human hepatoma G2 cells; Homo sapiens, HepG2): > 20 µM | IC50 (rat glioma C6 cells; Rattus norvegicus, C6): > 20 µM

O=C1c2cccc(NC3CCCC3)c2C(=O)c2cccc(NC3CCCC3)c21 [IVo, 1,5-Bis(cyclopentaneamino)-anthraquinone]
IC50 [3]: > 20 µM | IC50 (human hepatoma G2 cells): > 20 µM | IC50 (rat glioma C6 cells): > 20 µM

O=C1c2cccc(Nc3ccc(O)cc3)c2C(=O)c2cccc(Nc3ccc(O)cc3)c21 [IVq, 1,5-Bis(phenolamino)-anthraquinone]
IC50 [3]: > 20 µM | IC50 (human hepatoma G2 cells): 4.2 ± 0.76 µM | IC50 (rat glioma C6 cells): 14.21 ± 0.08 µM

CC(=O)Nc1ccc(NC(C)=O)c2c1C(=O)c1ccccc1C2=O [VI3, 1,4-Bisacetamido-9,10-anthracenedione]
viability at 48 h, 3.1 µM [1]: 109 ± 3.5% | viability at 48 h, 31 µM [1]: 108 ± 3.6% | viability at 48 h, 310 µM [1]: 37 ± 1.3% | SEAP/vibility ([2]; 3.1 μM, PhTERT-SEAP (hTERT-BJ1)): 0.66 | SEAP/vibility ([2]; 31 μM, PhTERT-SEAP (hTERT-BJ1)): 0.87 | SEAP/vibility ([2]; 310 μM, PhTERT-SEAP (hTERT-BJ1)): 1.20 | activity at 3.1 µM ([2]; Homo sapiens, 3.1 μM, PhTERT-SEAP (hTERT-BJ1), read-out: Relative SEAP activity (%)): 77 ± 12.4% | activity at 31 µM ([2]; Homo sapiens, 31 μM, PhTERT-SEAP (hTERT-BJ1), read-out: Relative SEAP activity (%)): 83 ± 10% | activity at 310 µM ([2]; Homo sapiens, 310 μM, PhTERT-SEAP (hTERT-BJ1), read-out: Relative SEAP activity (%)): 59 ± 15.2% | IC50 ([3]; Homo sapiens, HepG2.2.15): > 20 µM | viability at 48 h, 3.1 µM [4, 8]: 117 ± 3% | viability at 48 h, 31 µM [4, 8]: 95 ± 11.9% | viability at 48 h, 310 µM [4, 8]: 49 ± 8.9% | SEAP/vibility ([5]; 3.1 μM, PhTERT-SEAP(hTERT-H1299)): 0.78 | SEAP/vibility ([5]; 31 μM, PhTERT-SEAP(hTERT-H1299)): 0.83 | SEAP/vibility ([5]; 310 μM, PhTERT-SEAP(hTERT-H1299)): 2.16 | activity at 3.1 µM ([5]; Homo sapiens, NCI-H1299, 3.1 μM, PhTERT-SEAP(hTERT-H1299), read-out: Relative SEAP activity (%)): 85 ± 2.3% | activity at 31 µM ([5]; Homo sapiens, NCI-H1299, 31 μM, PhTERT-SEAP(hTERT-H1299), read-out: Relative SEAP activity (%)): 90 ± 3.3% | activity at 310 µM ([5]; Homo sapiens, NCI-H1299, 310 μM, PhTERT-SEAP(hTERT-H1299), read-out: Relative SEAP activity (%)): 80 ± 3.1% | IC50 (human hepatoma G2 cells; Homo sapiens, HepG2): > 20 µM | IC50 (rat glioma C6 cells; Rattus norvegicus, C6): > 20 µM

CCNc1cccc2c1C(=O)c1c(NCC)cccc1C2=O [Va, 1,8-Bis(ethylamine)-anthraquinone]
IC50 [3]: > 20 µM | IC50 (human hepatoma G2 cells): > 20 µM | IC50 (rat glioma C6 cells): > 20 µM

CCCNc1cccc2c1C(=O)c1c(NCCC)cccc1C2=O [Vb, 1,8-Bis(propylamine)-anthraquinone]
IC50 [3]: 1.06 µM | IC50 (human hepatoma G2 cells): 0.19 µM | IC50 (rat glioma C6 cells): 0.61 ± 0.01 µM

CCCCNc1cccc2c1C(=O)c1c(NCCCC)cccc1C2=O [Vc]
IC50 [3]: > 20 µM | IC50 (human hepatoma G2 cells): > 20 µM | IC50 (rat glioma C6 cells): > 20 µM
